Reference: ChEMBL document CHEMBL1240357, “Method for screening compounds that influence virulence gene expression in Staphylococcus aureus” (Antimicrob Agents Chemother, 2010)
Active and inactive are the calls of the source. No cut-off for these calls is given here.

Legend:
Type in all cases: functional, organism-based
Staphylococcus aureus [1] = assay: Induction of hla virulent gene expression in Staphylococcus aureus PC322 containing hla::lacZ assessed as color chage at 5 ug/ml at 37 degC in presence of chromogenic beta-galactosidase substrate and 1 to 50 % glucose solution
Staphylococcus aureus [2] = assay: Induction of hla virulent gene expression in Staphylococcus aureus PC322 containing hla::lacZ assessed as color chage at 5 ug/ml at 37 degC in presence of chromogenic beta-galactosidase substrate
Staphylococcus aureus [3] = assay: Induction of spa virulent gene expression in Staphylococcus aureus PC203 containing spa::lacZ assessed as color chage at 5 ug/ml at 37 degC in presence of chromogenic beta-galactosidase substrate and 1 to 50 % glucose solution
Staphylococcus aureus [4] = assay: Induction of spa virulent gene expression in Staphylococcus aureus PC203 containing spa::lacZ assessed as color chage at 5 ug/ml at 37 degC in presence of chromogenic beta-galactosidase substrate
Staphylococcus aureus [5] = assay: Induction of hla virulent gene expression in Staphylococcus aureus PC322 containing hla::lacZ assessed as color chage at 150 ug/ml at 37 degC in presence of chromogenic beta-galactosidase substrate and 1 to 50 % glucose solution
Staphylococcus aureus [6] = assay: Induction of spa virulent gene expression in Staphylococcus aureus PC203 containing spa::lacZ assessed as color chage at 150 ug/ml at 37 degC in presence of chromogenic beta-galactosidase substrate and 1 to 50 % glucose solution
Staphylococcus aureus [7] = assay: Induction of hla virulent gene expression in Staphylococcus aureus PC322 containing hla::lacZ assessed as color chage at 150 ug/ml at 37 degC in presence of chromogenic beta-galactosidase substrate
Staphylococcus aureus [8] = assay: Induction of spa virulent gene expression in Staphylococcus aureus PC203 containing spa::lacZ assessed as color chage at 150 ug/ml at 37 degC in presence of chromogenic beta-galactosidase substrate

Structure (SMILES) | Activity (Staphylococcus aureus [1]) | Activity (Staphylococcus aureus [2]) | Activity (Staphylococcus aureus [3]) | Activity (Staphylococcus aureus [4]) | Activity (Staphylococcus aureus [5]) | Activity (Staphylococcus aureus [6]) | Activity (Staphylococcus aureus [7]) | Activity (Staphylococcus aureus [8])
CC[C@H]1OC(=O)[C@H](C)[C@@H](O[C@H]2C[C@@](C)(OC)[C@@H](O)[C@H](C)O2)[C@H](C)[C@@H](O[C@@H]2O[C@H](C)C[C@H](N(C)C)[C@H]2O)[C@](C)(O)C[C@@H](C)C(=O)[C@H](C)[C@@H](O)[C@]1(C)O | inactive | Active | inactive | Active |  |  |  | 
OC[C@H]1O[C@@H](Oc2c[nH]c3ccc(Br)c(Cl)c23)[C@H](O)[C@@H](O)[C@H]1O |  |  |  |  | inactive | inactive | Active | Active
